In patent US20110034457A1, “Pyridothiophene Compounds” (VERNALIS (CAMBRIDGE) LIMITED., priority 2003, published 2011) one finds IC50 data, which are given here for 27 molecules.

This assay deals with T1, human full-length HSP90 (Homo sapiens, UniProt P08238).
T1 construct: E. coli expressed human full-length HSP90 protein, purified >95%; made in house; host or cells: E. coli
In words: Fluorescence polarization assay (competitive displacement of probe RBT0045864-FAM from HSP90). It is filed as binding. From the text:
Fluorescence polarization {also known as fluorescence anisotropy} measures the rotation of a fluorescing species in solution, where the larger molecule the more polarized the fluorescence emission. When the fluorophore is excited with polarized light, the emitted light is also polarized. The molecular size is proportional to the polarization of the fluorescence emission.
The fluoroscein-labelled probe—RBT0045864-FAM—
binds to HSP90 {full-length human, full-length yeast or N-terminal domain HSP90} and the anisotropy {rotation of the probe:protein complex} is measured.
Test compound is added to the assay plate, left to equilibrate and the anisotropy measured again. Any change in anisotropy is due to competitive binding of compound to HSP90, thereby releasing probe.
Stored at room temperature. • 3) BSA (bovine serum albumen) 10 mg/ml (New England Biolabs # B9001S) • 4) 20 mM probe in 100% DMSO stock concentration. Stored in the dark at RT. Working concentration is 200 nM diluted in AR water and stored at 4° C.
• 1) Add 100 μl 1× buffer to wells 11A and 12A (=FP BLNK) • 2) Prepare assay mix—all reagents are kept on ice with a lid on the bucket as the probe is light-sensitive.
• 3) Aliquot 100 μl assay mix to all other wells • 4) Seal plate and leave in dark at room temp for 20 minutes to equilibrate
This gives 2.5 mM {50×} stock cpd—assuming cpds 20 mM. • 4) Repeat for wells A2 to A10. Control in columns 11 and 12. • 5) Transfer 5 μl from row A to row B—not column 12. Mix well. • 6) Transfer 5 μl from row B to row C. […] Add 2 μl of 100 mM standard cpd to wells B12-H12 {is positive control} • 13) The Z′ factor is calculated from zero controls and positive wells.
(In general: Fluorescence polarisation rises when a labelled molecule tumbles more slowly, as on binding a larger partner.)

The mark [1] stands for this setting: fluorescence polarisation, E. coli expressed human full-length HSP90 200 nM, probe 80 nM, read-out: Hsp90 FP IC50.

pIC50: −log10 of the molar value. Like-named read-outs stand apart in the source and are kept apart here. Where only a bound is given, the exact number is not on record here.

T1 sequence (P08238 whole entry): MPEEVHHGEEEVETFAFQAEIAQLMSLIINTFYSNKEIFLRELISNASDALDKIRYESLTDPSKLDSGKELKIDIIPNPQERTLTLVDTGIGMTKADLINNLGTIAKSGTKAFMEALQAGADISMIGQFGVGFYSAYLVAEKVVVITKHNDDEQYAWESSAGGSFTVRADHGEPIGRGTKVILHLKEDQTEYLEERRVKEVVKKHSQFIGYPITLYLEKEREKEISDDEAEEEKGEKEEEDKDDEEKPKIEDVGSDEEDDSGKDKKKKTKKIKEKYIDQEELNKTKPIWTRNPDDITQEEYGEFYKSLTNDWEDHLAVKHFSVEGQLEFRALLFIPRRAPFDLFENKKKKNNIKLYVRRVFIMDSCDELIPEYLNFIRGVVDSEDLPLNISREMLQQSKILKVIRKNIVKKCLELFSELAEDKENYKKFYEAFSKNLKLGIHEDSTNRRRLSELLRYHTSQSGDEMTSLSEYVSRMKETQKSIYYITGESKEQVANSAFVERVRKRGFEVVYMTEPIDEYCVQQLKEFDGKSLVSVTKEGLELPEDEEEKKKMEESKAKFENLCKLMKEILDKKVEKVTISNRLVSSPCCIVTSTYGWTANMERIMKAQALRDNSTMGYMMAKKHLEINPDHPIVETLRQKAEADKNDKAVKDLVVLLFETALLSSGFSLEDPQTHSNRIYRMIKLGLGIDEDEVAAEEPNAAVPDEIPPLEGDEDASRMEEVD

For `CCNC(=O)c1sc2nc(N)c(C#N)c(-c3ccccc3)c2c1N` [Example 1, 3,6-Diamino-5-cyano-4-phenyl-thieno[2,3-b]pyridine-2-carboxylic acid ethylamide], under setting [1], the pIC50 is over 5.00.
As to `Cc1ccccc1NC(=O)c1sc2nc(N)c(C#N)c(-c3ccc(C(C)C)cc3)c2c1N` [Example 2], the pIC50 under setting [1] is under 5.00.
`COc1cccc(NC(=O)c2sc3nc(N)c(C#N)c(-c4ccc(C(C)C)cc4)c3c2N)c1` [Example 3]: the pIC50 under setting [1] was under 5.00.
On to `N#Cc1c(N)nc2sc(C(N)=O)c(N)c2c1-c1ccc(Br)cc1` [Example 4], for which, under setting [1], the pIC50 is under 5.00.
On the same count and under the same terms, next, `CC(C)c1ccc(-c2c(C#N)c(N)nc3sc(C(=O)Nc4nccs4)c(N)c23)cc1` [Example 5]: under 5.00; `CC(C)c1ccc(-c2c(C#N)c(N)nc3sc(C(N)=O)c(N)c23)cc1` [Example 6]: over 5.00.
With `N#Cc1c(N)nc2sc(C(N)=O)c(N)c2c1-c1ccc(Cl)cc1` [Example 7], the pIC50 under setting [1] is over 5.00.
On to `CCOc1ccc(-c2c(C#N)c(N)nc3sc(C(N)=O)c(N)c23)cc1` [Example 8], for which the negative-log IC50 (pIC50) is over 5.00.
For the molecule `N#Cc1c(N)nc2sc(C(=O)Nc3ccccc3)c(N)c2c1-c1ccc(Br)cc1` [Example 9], the pIC50 under setting [1] is under 5.00.
Still for that read-out and setting: under `COc1ccc(-c2c(C#N)c(N)nc3sc(C(N)=O)c(N)c23)cc1OC` [Example 10] stands under 5.00.
On the same count and under the same terms, under `CC(C)NC(=O)c1sc2nc(N)c(C#N)c(-c3ccccc3)c2c1N` [Example 11] stands under 5.00; under `N#Cc1c(N)nc2sc(C(=O)NCc3ccccc3)c(N)c2c1-c1ccccc1` [Example 12], under 5.00.
Take `CCN(CC)C(=O)c1sc2nc(N)c(C#N)c(-c3ccccc3)c2c1N` [Example 13]: under setting [1], the pIC50 is under 5.00.
Take `CNC(=O)c1sc2nc(N)c(C#N)c(-c3ccccc3)c2c1N` [Example 14]: the pIC50 under setting [1] was over 5.00.
For `COC(=O)CNC(=O)c1sc2nc(N)c(C#N)c(-c3ccccc3)c2c1N` [Example 15], the pIC50 under setting [1] is over 5.00.
The same measure, in the same setting: under `CN1CCN(C(=O)c2sc3nc(N)c(C#N)c(-c4ccccc4)c3c2N)CC1` [Example 16] stands under 5.00; under `CN(C)CCCNC(=O)c1sc2nc(N)c(C#N)c(-c3ccccc3)c2c1N` [Example 17], under 5.00.
Consider `CN1CCN(CCCNC(=O)c2sc3nc(N)c(C#N)c(-c4ccccc4)c3c2N)CC1` [Example 18], for which the pIC50 under setting [1] is under 5.00.
Take `N#Cc1c(N)nc2sc(C(=O)NCCCN3CCOCC3)c(N)c2c1-c1ccccc1` [Example 19]: the pIC50 under setting [1] was under 5.00.
Consider `N#Cc1c(N)nc2sc(C(=O)N3CCOCC3)c(N)c2c1-c1ccccc1` [Example 20], for which, under setting [1], the negative logarithm of the IC50 (pIC50) was under 5.00.
Still for that read-out and setting: under `N#Cc1c(N)nc2sc(C(=O)NCCN3CCOCC3)c(N)c2c1-c1ccccc1` [Example 21] stands under 5.00.
In the case of `N#Cc1c(N)nc2sc(C(=O)NCC(N)=O)c(N)c2c1-c1ccccc1` [Example 22], the pIC50 under setting [1] was over 5.00.
On to `CN(C)CCNC(=O)c1sc2nc(N)c(C#N)c(-c3ccccc3)c2c1N` [Example 23], for which the pIC50 under setting [1] was under 5.00.
The same measure, in the same setting: under `N#Cc1c(N)nc2sc(C(=O)NCCO)c(N)c2c1-c1ccccc1` [Example 24] stands under 5.00; under `N#Cc1c(N)nc2sc(C(N)=O)c(N)c2c1-c1ccccc1` [Example 25], under 5.00; under `N#Cc1c(N)nc2sc(C(=O)NCCN)c(N)c2c1-c1ccccc1` [Example 26], under 5.00.
Turning to `COC(=O)c1sc2nc(N)c(C#N)c(-c3ccc(OC(C)C)cc3)c2c1N` [Example 27], the pIC50 under setting [1] was under 5.00.

By pIC50 is commonly meant the negative decadic logarithm of the IC50, by convention in mol/L.
